Experimental data taken from ChEMBL document CHEMBL1201862, “PubChem BioAssay data set” (2004).
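Method: 48-hour compound exposure of cells in 96-well plates, five concentrations, linear interpolation of endpoints. At the GI50, growth is halved.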 Active and inactive are the calls of the source. Cut-off read from the data, not from the text of the source: active = GI50 up to about 1.1 µM and inactive = higher.

Columns and labels:
Assay in all cases: DTP human tumour cell line panel, 48 h
HCT-15 = tested on: HCT-15
LOX IMVI = tested on: LOX IMVI
A498 = tested on: A498
SF-295 = tested on: SF-295
SK-MEL-28 = tested on: SK-MEL-28
NCI/ADR-RES = tested on: NCI/ADR-RES
RXF 393 = tested on: RXF 393
SN12C = tested on: SN12C
HT-29 = tested on: HT-29
M14 = tested on: M14
NCI-H226 = tested on: NCI-H226
SNB-75 = tested on: SNB-75
SK-MEL-5 = tested on: SK-MEL-5
NCI-H23 = tested on: NCI-H23
DU-145 = tested on: DU-145
RPMI-8226 = tested on: RPMI-8226
CCRF-CEM = tested on: CCRF-CEM
SR = tested on: SR
NCI-H522 = tested on: NCI-H522
K562 = tested on: K562

SMILES | GI50 (HCT-15) [µM] | GI50 (LOX IMVI) | GI50 (A498) | GI50 (SF-295) | GI50 (SK-MEL-28) | GI50 (NCI/ADR-RES) | GI50 (RXF 393) | GI50 (SN12C) | GI50 (HT-29) | GI50 (M14) | GI50 (NCI-H226) | GI50 (SNB-75) | GI50 (SK-MEL-5) | GI50 (NCI-H23) | GI50 (DU-145) | GI50 (RPMI-8226) | GI50 (CCRF-CEM) | GI50 (SR) | GI50 (NCI-H522) | GI50 (K562)
CC(=O)/C(=C/NC(=S)Nc1ccc(Cl)c(Cl)c1)C(=O)Nc1ccccc1C | 29.6 | 34 µM (inactive) | 26.2 µM (inactive) | 32 µM (inactive) | 44.7 µM (inactive) | 18.7 µM (inactive) | 29.4 µM (inactive) | 35.7 µM (inactive) | 22.3 µM (inactive) | 37 µM (inactive) | 13.8 µM (inactive) | 18.1 µM (inactive) | 19.2 µM (inactive) | 23.6 µM (inactive) | 26.4 µM (inactive) | – | – | – | – | –
COc1ccc(C2=C(OC(C)=O)c3cccn3-c3ccccc3S2)cc1 | 1.18 | 4.55 µM (inactive) | – | 1.45 µM (inactive) | 3.66 µM (inactive) | – | 1.61 µM (inactive) | 1.29 µM (inactive) | 2.19 µM (inactive) | 5.68 µM (inactive) | – | 2.41 µM (inactive) | 3.37 µM (inactive) | 1.89 µM (inactive) | 2.46 µM (inactive) | 2.4 µM (inactive) | 2.9 µM (inactive) | 3.36 µM (inactive) | – | –
Cc1ccccc1NC(=O)c1nc(S)nc(N)c1-c1ccccc1C | > 100 | > 100 µM (inactive) | > 100 µM (inactive) | > 100 µM (inactive) | > 100 µM (inactive) | – | > 100 µM (inactive) | > 100 µM (inactive) | > 100 µM (inactive) | > 100 µM (inactive) | > 100 µM (inactive) | 1.74 µM (inactive) | > 100 µM (inactive) | > 100 µM (inactive) | – | > 100 µM (inactive) | > 100 µM (inactive) | > 100 µM (inactive) | > 100 µM (inactive) | > 100 µM (inactive)
NC(=O)c1cc([N+](=O)[O-])cc([N+](=O)[O-])c1 [NITROMIDE] | > 100 | > 100 µM (inactive) | > 100 µM (inactive) | > 100 µM (inactive) | > 100 µM (inactive) | – | > 100 µM (inactive) | > 100 µM (inactive) | > 100 µM (inactive) | > 100 µM (inactive) | > 100 µM (inactive) | > 100 µM (inactive) | > 100 µM (inactive) | > 100 µM (inactive) | – | > 100 µM (inactive) | > 100 µM (inactive) | > 100 µM (inactive) | > 100 µM (inactive) | > 100 µM (inactive)
CCCNC(=O)OCc1c(COC(=O)NCCC)c(-c2ccc(Cl)c(Cl)c2)n2c1CCC2 | 4.18 | 3.78 µM (inactive) | 1.26 µM (inactive) | 2.95 µM (inactive) | – | 3.89 µM (inactive) | 2.35 µM (inactive) | 3.11 µM (inactive) | 4.12 µM (inactive) | 10.6 µM (inactive) | 1.58 µM (inactive) | – | 5.98 µM (inactive) | 5.93 µM (inactive) | 7 µM (inactive) | 5.02 µM (inactive) | 1.98 µM (inactive) | – | 1.16 µM (inactive) | 4.31 µM (inactive)
COc1c(CCl)cc(-c2cc(=O)c3ccccc3s2)cc1CCl | > 100 | 1.86 µM (inactive) | 20.4 µM (inactive) | 11.9 µM (inactive) | > 94.4 µM (inactive) | – | 1.63 µM (inactive) | > 100 µM (inactive) | – | > 100 µM (inactive) | 30.1 µM (inactive) | 6.78 µM (inactive) | 39.4 µM (inactive) | 18.9 µM (inactive) | > 100 µM (inactive) | 3.77 µM (inactive) | 2.24 µM (inactive) | 3.18 µM (inactive) | 1.99 µM (inactive) | 2.68 µM (inactive)
CCN1c2ccccc2-c2c3c1cc(C)cc3c1ccccc1[n+]2CC | 6.22 | 0.386 µM (active) | 3.26 µM (inactive) | 0.78 µM (active) | 1.19 µM (inactive) | – | 2.96 µM (inactive) | 0.659 µM (active) | 1.41 µM (inactive) | 1.69 µM (inactive) | 1.75 µM (inactive) | 0.798 µM (active) | 0.52 µM (active) | 1.32 µM (inactive) | – | 0.466 µM (active) | 0.621 µM (active) | 1.55 µM (inactive) | 1.26 µM (inactive) | 0.323 µM (active)
CC(C)[C@H](CCl)NC(=O)c1cccc(C(=O)N[C@H](CCl)C(C)C)n1 (stereo in doubt) | > 100 | > 100 µM (inactive) | 78.7 µM (inactive) | > 100 µM (inactive) | > 100 µM (inactive) | – | > 100 µM (inactive) | > 100 µM (inactive) | > 100 µM (inactive) | > 100 µM (inactive) | > 100 µM (inactive) | > 100 µM (inactive) | > 100 µM (inactive) | > 100 µM (inactive) | – | > 100 µM (inactive) | > 100 µM (inactive) | > 100 µM (inactive) | > 100 µM (inactive) | > 100 µM (inactive)
